Results reported in PubChem BioAssay AID602211 (Sanford-Burnham Center for Chemical Genomics, 2012).
Active and inactive are the calls of the source.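 How the source made its calls: active means mean IC50 at or below 10 µM; inactive means the rest.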

tested on: H9c2 cardiomyocytes, H2O2 protection, ATPLite viability, 2 h; assay: protection of H9c2 cardiomyocytes from H2O2 death, dose response, cell-based, ATPLite luminescence, set 2 (AID 602211);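 further: potency is for protection so actives keep ATP signal up against peroxide killing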

Structure (SMILES)	IC50
Cc1cccc(NC(=O)c2cc(-c3ccco3)nc3ccccc23)n1	8.15 µM
COc1cc2c(C#CCCCO)c(-c3ccsc3)oc(=O)c2cc1OC	2.3 µM
O=C(c1ccccc1)c1ccc2nc(N3CCN(C(=O)c4ccco4)CC3)c3nncn3c2c1	9.31 µM
CC(C)(C)C(=O)Nc1cccc(-c2nnc(-c3cccc(NC(=O)C(C)(C)C)c3)o2)c1	4.79 µM
O=C(N/N=C/c1ccccn1)c1cc(-c2cccc3ccccc23)n[nH]1	6.66 µM
COc1cc(/C=C/c2nc3ccccc3c(=O)n2-c2ccc(O)cc2)ccc1O	3.01 µM
COc1ccc(COc2cc(-c3cccc(OC)c3)nc3ccc(NC(=O)c4ccc(OC)cc4)cc23)cc1	2.42 µM
CC(=O)Nc1ccc(S(=O)(=O)N(Cc2ccco2)Cc2cc3ccccc3[nH]c2=O)cc1	> 79 µM (inactive)
C[C@@H]1CN([C@@H](C)CO)C(=O)c2cc(NC(=O)Nc3ccccc3)ccc2O[C@H]1CN(C)C(=O)Nc1cccc2ccccc12	8.2 µM
C[C@H]1Cn2cnc(C(=O)N[C@@H](Cc3c[nH]c4ccccc34)C(=O)OC(C)(C)C)c2C(=O)N1	24.1 µM (inactive)
CC(=O)c1ccc(-c2[nH]c3ccccc3c2CCN2C(=O)c3ccccc3C2=O)cc1	9.73 µM
COc1cc(OC)cc(C(=O)Nc2ccc(C(=O)Nc3ccccc3OC)cc2)c1	10.2 µM (inactive)
COc1cccc(-c2nn(-c3ccccc3)cc2C(=O)Nc2nccs2)c1	12.8 µM (inactive)
CCN(CC)C(=O)c1[nH]cnc1C(=O)NCC(=O)OCc1ccccc1	6.88 µM
NC(=O)c1ccc(Nc2nnc(-c3ccc(O)cc3)c3ccccc23)cc1	14.7 µM (inactive)
C[C@@H]1ON(C)[C@H]2C[C@H]3c4[nH]c5ccc(-c6ccc7c(c6)OCO7)cc5c4CCN3C[C@@H]12	> 79 µM (inactive)
Nc1nonc1-n1nnc(C(=O)N/N=C/c2ccccn2)c1CNc1ccccc1	16.3 µM (inactive)
COc1ccc(-c2nn(-c3ccccc3)cc2C(=O)Nc2nccs2)cc1	8.75 µM
CC(=O)Nc1cccc(NC(=O)c2cc(-c3cccnc3)nc3ccc(Br)cc23)c1	1.3 µM
CC1Nc2ncnc(N3CCN(c4ccccc4)CC3)c2N(Cc2ccc(Cl)cc2)C1=O (centres undefined)	5.41 µM
Cc1nn2c(-c3cccc(NC(=O)c4ccco4)c3)nnc2c2ccccc12	1.66 µM
c1cc2[nH]snc2c2nc(C3CC3)nc12	7.56 µM
COC(=O)c1cc2c(C)c(C)c3ccccn3c-2c1C(=O)OC	> 79 µM (inactive)
COc1ccc2o/c(=N/NC(=O)c3cccs3)c(C(N)=O)cc2c1	2.29 µM

Structure (SMILES)	IC50
CCOC(=O)c1ccc(NC(=O)c2nc[nH]c2C(=O)NCCCCCNC(=O)OC(C)(C)C)cc1	4.43 µM
CCC(=O)N1CCN(c2ccccc2NC(=O)c2ccc(-c3cccc([N+](=O)[O-])c3)o2)CC1	1.99 µM
N#Cc1c(-c2ccco2)cc(-c2cccnc2)nc1N	11 µM (inactive)
COc1ccc(-c2cc(NC=O)c3ncc(-c4ccc(C(C)=O)cc4)n3c2)cn1	4.52 µM
CCn1c(O)c(/C=N/N=C2CCCCC2)c2cc(C3=NNC(=O)CC3)ccc21	9.96 µM
CCN(CC)S(=O)(=O)c1ccc(N2CCOCC2)c(NC(=O)c2cc(-c3ccccn3)nc3ccccc23)c1	1.34 µM
CN(C(=O)c1sc2nc(N3CCOCC3)c3c(c2c1N)CCCC3)c1ccccc1	2.64 µM
Cc1ccc(C)c(NC(=O)C(Sc2nc3ccccc3c(=O)n2CC(C)C)c2ccccc2)c1 (centres undefined)	0.35 µM
O=C(N/N=C/c1ccccn1)c1[nH]c2ccc([N+](=O)[O-])cc2c1-c1ccccc1	2.33 µM
CCCCn1nc(NC(=O)c2cccs2)c2cc3cc(OC)ccc3nc21	3.61 µM
O=C(C(=O)N(Cc1ccccc1)Cc1ccccc1)c1c(-c2ccccc2)[nH]c2ccccc12	0.33 µM
O=CNc1cc(-c2ccc(C(=O)NC3CC3)cc2)cn2c(-c3ccccc3)cnc12	10.3 µM (inactive)
C[C@H](CO)N1C[C@H](C)[C@@H](CN(C)S(=O)(=O)c2ccc(F)cc2)Oc2ccc(NC(=O)Nc3ccc4c(c3)OCO4)cc2C1=O	10.1 µM (inactive)
COc1ccc(-c2cc(-c3nnc(COC(=O)C4CC4C)o3)c3ccccc3n2)cc1OC (centres undefined)	3.86 µM
Cn1c(-n2c(CCCN3C(=O)c4ccccc4C3=O)nc3ccccc3c2=O)nc2ccccc21	11.6 µM (inactive)
Nc1c(C(=O)NC2CC2)c2nc3ccccc3nc2n1-c1ccc2c(c1)OCO2	4.49 µM
Cc1cccc(NC(=O)c2nc[nH]c2C(=O)NCCCNC(=O)c2[nH]cnc2C(=O)Nc2cccc(C)c2)c1	0.729 µM
O=C(c1cc(=O)[nH]c2ccccc12)N1CCN(S(=O)(=O)c2ccc3ccccc3c2)CC1	2.89 µM
Cc1cccc(NC(=O)c2nc[nH]c2C(=O)NCCCCNC(=O)c2[nH]cnc2C(=O)Nc2cccc(C)c2)c1	1.39 µM
COc1cc(NC(=O)c2csc(-c3ccncc3)n2)cc(C(=O)Nc2cccc(C(F)(F)F)c2)c1	2.7 µM
CC(C)c1cc(N2CCN(C(=O)c3ccco3)CC2)n2c(nc3ccccc32)c1C#N	44.8 µM (inactive)
CCOC(=O)c1nn(-c2cccc(OC)c2)c2nc(Nc3ccccc3)cc(=O)n12	> 79 µM (inactive)
COc1cccc(Nc2nc3ccccc3n3cnnc23)c1	9.05 µM
Cn1c(C(=O)NCCc2ccsc2)cc2c(=O)n(C)c3ccccc3c21	4.74 µM

Structure (SMILES)	IC50
COc1ccc(OC)c(/C=N/NC(=O)c2cc3c(OC)c(OC)ccc3[nH]2)c1	3.48 µM
COc1ccc(OC)c(N(CC(=O)Nc2cccnc2)S(=O)(=O)c2ccc(OC)c(OC)c2)c1	16.5 µM (inactive)
CCOC(=O)C1CCN(c2cc3c(cc2NC(=O)c2ccccc2)n(C)c(=O)n3C)CC1	5.18 µM
COc1cccc2cc(-c3cc(=O)oc4ccc(OCC(C)=O)cc34)oc12	3.21 µM
CC(C)C1Nc2ccc(C(=O)N3CCN(c4ccccn4)CC3)cc2NC1=O (centres undefined)	22.9 µM (inactive)
COCCn1c(=NC(=O)c2nc3ccccc3s2)sc2cc(S(C)(=O)=O)ccc21	1.4 µM
COc1ccc(CCn2c(=O)c3cccnc3n(Cc3ccc([N+](=O)[O-])cc3)c2=O)cc1OC	1.22 µM
Cc1ccccc1NP(=O)(Oc1ccccc1F)Oc1ccccc1F	> 79 µM (inactive)
CCOCCCNC(=O)CCC(=O)NNc1nc2ccccc2c2nc(-c3ccccc3)nn12	42.6 µM (inactive)
COc1ccc(N(Cc2cc3cc(OC)ccc3[nH]c2=O)C(=O)c2cccnc2)cc1	19.1 µM (inactive)
N#Cc1c(-c2ccco2)cc(-c2ccccn2)nc1N	28.5 µM (inactive)
N#C/C(=C\c1cn(-c2ccccc2)nc1-c1cccnc1)c1nnc2n1CCCCC2	13.7 µM (inactive)
Cn1c(=O)c2[nH]c(NN=Cc3ccc(Br)cc3)nc2n(C)c1=O	5.14 µM
CCN(CC)S(=O)(=O)c1ccc(Nc2nc3ccccc3n3nnnc23)cc1	4.92 µM
O=S(=O)(c1ccccc1)N1CCN(c2nc(-c3cccnc3)nc3ccccc23)CC1	4.54 µM
COc1ccc(-c2cc(NC=O)c3ncc(-c4ccccc4)n3c2)cc1OC	> 79 µM (inactive)
CCOC(=O)c1cccc(Nc2nc(-c3cccnc3)nc3ccccc23)c1	> 79 µM (inactive)
COc1ccc(-n2nc(C(=O)NCC(=O)Nc3cc(OC)c(OC)c(OC)c3)c3ccccc3c2=O)cc1Cl	3.02 µM
COC(=O)/C(=C(O)\C=C\c1ccccc1[N+](=O)[O-])c1nc2ccccc2[nH]1	7.96 µM
COc1cccc(-c2cnc3c(NC(C)=O)cc(-c4cc(OC)c(OC)c(OC)c4)cn23)c1	3.27 µM
COc1ccc(C(=O)O/N=C(/c2ccccc2)c2ccncc2)cc1OC	10.7 µM (inactive)
COc1cccc(C(=O)Nc2cccc(-c3nnc(-c4ccco4)o3)c2)c1	> 79 µM (inactive)
Cc1cccc(NC(=O)c2nc[nH]c2C(=O)NCCCCCCNC(=O)c2[nH]cnc2C(=O)Nc2cccc(C)c2)c1	> 79 µM (inactive)
COc1ccc(Cl)cc1NC(=O)CCS(=O)(=O)c1cc2c(cc1C)NC(=O)CO2	8.29 µM

Structure (SMILES)	IC50
COC(=O)c1cc2ccccn2c2c(C(=O)OC)c(C(=O)OC)cc1-2	2.25 µM
NC(=O)c1nsc(C(=O)N(CCc2ccccc2)C(C(=O)NC2CCCC2)c2ccco2)c1N (centres undefined)	11.3 µM (inactive)
COc1cc(-c2cc3nc(NCCc4ccc(S(N)(=O)=O)cc4)ccn3n2)cc(OC)c1OC	12.1 µM (inactive)
COc1nc(N/N=C/c2cc3c(cc2Br)OCO3)nc(N2CCOCC2)n1	11.9 µM (inactive)
Clc1ccccc1-c1nc(N/N=C/c2cccnc2)c2ccccc2n1	7.3 µM
NC(=O)c1nsc(C(=O)N(c2ccccc2)C(C(=O)NC2CCCC2)c2ccc3ncccc3c2)c1N (centres undefined)	3.35 µM
O=C(CN1CCN(c2ccccn2)CC1)Nc1ccc([N+](=O)[O-])cc1C(=O)Nc1ccccc1F	7.08 µM
COc1ccccc1-c1cc(NC=O)c2ncc(-c3cccc(C(C)=O)c3)n2c1	8.53 µM
Nc1c(C(=O)N/N=C/c2cccnc2)oc2nc(-c3ccco3)cc(-c3ccco3)c12	2.45 µM
O=C(Cn1nc(C(=O)O)c2ccccc2c1=O)c1c[nH]c2ccccc12	3.53 µM
CC(=O)c1ccc(N2CCN(C(=O)c3cc(-c4cccnc4)nc4ccc(Br)cc34)CC2)cc1	3.78 µM
COc1cc(-c2cc(C(=O)Nc3cccc(C(C)=O)c3)c3ccccc3n2)cc(OC)c1OC	3.59 µM
NC(=O)c1nsc(C(=O)N(c2ccccc2)C(C(=O)NCc2ccc(F)cc2)c2ccc(O)cc2)c1N (centres undefined)	1.98 µM
COc1cc(C(=O)Nc2ccc(NC(=O)c3cccc(Cl)c3)nc2)cc(OC)c1OC	2.96 µM
O=C(Nc1ccccc1)c1nc[nH]c1C(=O)NCCNC(=O)c1[nH]cnc1C(=O)Nc1ccccc1	0.668 µM
O=[N+]([O-])c1ccc(Nc2nc(N/N=C/c3cccc(F)c3)nc(N3CCCC3)n2)cc1	9.66 µM
COC(=O)c1ccc(C(=O)OC)c(NC(=O)COC(=O)C23CC4CC(CC(O)(C4)C2)C3)c1	3.4 µM
CCOc1ccc(S(=O)(=O)N(C)CCO)cc1-c1nc2c(C(C)(C)C)nn(C)c2c(=O)[nH]1	5.22 µM
COc1ccc(-c2oc(=O)c3cc(OC)c(OC)cc3c2C#CCCO)cc1	6.71 µM
CC(C)(C)OC(=O)C[C@H]1C/C=C\C[C@H](CC(=O)N[C@H](CO)Cc2ccccc2)C(=O)N[C@H](Cc2ccccc2)COC1=O	6.31 µM
CCOc1ccccc1Nc1nnc(SCc2nnc(-c3cc(OC)c(OC)c(OC)c3)o2)s1	9.01 µM
COc1ccc(-c2cc(-c3nnc(COC(=O)C4CC4)o3)c3ccccc3n2)cc1OC	4.39 µM
